Measured values as given in patent US20260207563A1, “UREA COMPOUNDS AS ACTIVATORS OF POTASSIUM CHANNELS KV7.2/7.3 USEFUL IN THE TREATMENT OF CNS AND PNS DISORDERS” (ANGELINI PHARMA S.P.A., priority 2022, published 2026).

Assays:
Type in all cases: cell-based
[1] = target: T1, heteromeric KV7.2/KV7.3 channels (KCNQ2, KCNQ3) (Homo sapiens, UniProt O43525+O43526); experiment: Automated patch-clamp (Sophion Qube 384) potency assay against KV7.2/KV7.3 channels; conditions: CHO-K1/Kv7.2/Kv7.3 cells; for EC50: EC50 from concentration-response of shift in Vhalf, 10 concentrations up to 30 μM, read-out: Kv7.2/7.3 EC50; for Kv7.2/7.3 ΔV1/2: maximal shift in the Vhalf from the top of the curve
T1 construct: expressed in transfected cells; host or cells: CHO-K1
Summary of the method: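 Activator potency: EC50 from 4-parameter logistic fit of mean Vhalf shift across ten 1-in-3 dilutions starting at 30 μM (n=4), with DMSO (typically 0.3%) control. Currents recorded by leak-subtracted whole-cell clamp of stable CHO-K1 KV7.2/KV7.3 cells, held at −80 mV, stepped −100 to +20 mV then 0 mV tails.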

[2] = target: T2, homomeric KV7.4 channel (KCNQ4) (Homo sapiens, UniProt P56696); experiment: Automated patch-clamp (Qube) counter-screening assay against KV7.4 channel; conditions: CHO-K1 cells expressing KV7.4; class by maximal shift in the Vhalf at 30 μM
T2 construct: host or cells: CHO-K1
Summary of the method: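 EC50 and maximal shift in half-activation voltage come from 4-parameter logistic fits of mean Vhalf shifts. The series had ten 1-in-3 concentrations, highest 30 μM, each tested in quadruplicate. Recordings used automated Qube patch clamp on a stable CHO-K1 line expressing KCNQ4, and selectivity was judged from the 30 μM Vhalf shift.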

[3] = target: T3, heteromeric KV7.3/KV7.5 channel (KCNQ3, KCNQ5) (Homo sapiens, UniProt O43525+Q9NR82); experiment: Automated patch-clamp counter-screening against KV7.3/KV7.5 channel; conditions: HEK293 cells expressing Kv7.3/KV7.5; class by maximal shift in the Vhalf at 30 μM
T3 construct: host or cells: HEK293
Summary of the method: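 Potency came from a 4-parameter logistic fit of mean voltage-of-half-activation shifts, yielding EC50 and maximal shift; selectivity was judged on the shift at 30 μM. Compounds were applied at ten 3-fold dilutions from 30 μM in quadruplicate to HEK293 cells stably carrying Kv7.3 with tet-inducible Kv7.5.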

Compound: O=C(NCc1ccnc(OCC(F)(F)F)c1)Nc1cccc2c1OCCC2 [Compound 140]
- EC50 [1]: 3100 nM
- Kv7.2/7.3 ΔV1/2 [1]: 25.85 mV
- Kv7.4 selectivity criteria [2]: A (Selective compounds showed Kv7.4 and/or Kv7.3/7.5 ΔV1/2 equal to or lower than 15 mV (letter A in table 3))
- Kv7.3/7.5 selectivity criteria [3]: A (Selective compounds showed Kv7.4 and/or Kv7.3/7.5 ΔV1/2 equal to or lower than 15 mV (letter A in table 3))

Compound: O=C(NCc1ccnc(OCC(F)(F)F)c1)NCC1CCCc2ccccc21 (stereo not drawn) [Compound 141]
- EC50 [1]: 285 nM
- Kv7.2/7.3 ΔV1/2 [1]: 17.59 mV
- Kv7.4 selectivity criteria [2]: A (Selective compounds showed Kv7.4 and/or Kv7.3/7.5 ΔV1/2 equal to or lower than 15 mV (letter A in table 3))
- Kv7.3/7.5 selectivity criteria [3]: A (Selective compounds showed Kv7.4 and/or Kv7.3/7.5 ΔV1/2 equal to or lower than 15 mV (letter A in table 3))

Compound: O=C(NCc1ccnc(OCC(F)(F)F)c1)N[C@H]1CCCOc2ccccc21 [Compound 142]
- EC50 [1]: 657 nM
- Kv7.2/7.3 ΔV1/2 [1]: 16.4 mV
- Kv7.4 selectivity criteria [2]: A (Selective compounds showed Kv7.4 and/or Kv7.3/7.5 ΔV1/2 equal to or lower than 15 mV (letter A in table 3))
- Kv7.3/7.5 selectivity criteria [3]: A (Selective compounds showed Kv7.4 and/or Kv7.3/7.5 ΔV1/2 equal to or lower than 15 mV (letter A in table 3))

Compound: O=C(NCc1ccnc(OCC(F)(F)F)c1)N[C@H]1CCc2c(Cl)cccc21 [Compound 143]
- EC50 [1]: 3970 nM
- Kv7.2/7.3 ΔV1/2 [1]: 22.37 mV
- Kv7.4 selectivity criteria [2]: A (Selective compounds showed Kv7.4 and/or Kv7.3/7.5 ΔV1/2 equal to or lower than 15 mV (letter A in table 3))
- Kv7.3/7.5 selectivity criteria [3]: B (Non-selective compounds showed Kv7.4 and/or Kv7.3/7.5 ΔV1/2 higher than 15 mV (letter B in table 3))

Compound: O=C(NCc1ccnc(OCC(F)(F)F)c1)NC1CCc2sccc21 (stereo not drawn) [Compound 144]
- EC50 [1]: 2680 nM
- Kv7.2/7.3 ΔV1/2 [1]: 23.26 mV
- Kv7.4 selectivity criteria [2]: A (Selective compounds showed Kv7.4 and/or Kv7.3/7.5 ΔV1/2 equal to or lower than 15 mV (letter A in table 3))
- Kv7.3/7.5 selectivity criteria [3]: A (Selective compounds showed Kv7.4 and/or Kv7.3/7.5 ΔV1/2 equal to or lower than 15 mV (letter A in table 3))

Compound: O=C(NCc1ccnc(OCC(F)(F)F)c1)NCC1Cc2ccccc2C1 [Compound 145]
- EC50 [1]: 1610 nM
- Kv7.2/7.3 ΔV1/2 [1]: 23.71 mV
- Kv7.4 selectivity criteria [2]: A (Selective compounds showed Kv7.4 and/or Kv7.3/7.5 ΔV1/2 equal to or lower than 15 mV (letter A in table 3))
- Kv7.3/7.5 selectivity criteria [3]: A (Selective compounds showed Kv7.4 and/or Kv7.3/7.5 ΔV1/2 equal to or lower than 15 mV (letter A in table 3))

Compound: O=C(NCc1ccnc(OCC(F)(F)F)c1)NC1(CO)Cc2ccccc2C1 [Compound 146]
- EC50 [1]: 6540 nM
- Kv7.2/7.3 ΔV1/2 [1]: 30.86 mV
- Kv7.4 selectivity criteria [2]: B (Non-selective compounds showed Kv7.4 and/or Kv7.3/7.5 ΔV1/2 higher than 15 mV (letter B in table 3))
- Kv7.3/7.5 selectivity criteria [3]: B (Non-selective compounds showed Kv7.4 and/or Kv7.3/7.5 ΔV1/2 higher than 15 mV (letter B in table 3))

Compound: O=C(NCc1ccnc(OCC(F)(F)F)c1)NC1COc2ccc(F)cc21 (stereo not drawn) [Compound 147]
- EC50 [1]: 1890 nM
- Kv7.2/7.3 ΔV1/2 [1]: 15.93 mV
- Kv7.4 selectivity criteria [2]: A (Selective compounds showed Kv7.4 and/or Kv7.3/7.5 ΔV1/2 equal to or lower than 15 mV (letter A in table 3))
- Kv7.3/7.5 selectivity criteria [3]: A (Selective compounds showed Kv7.4 and/or Kv7.3/7.5 ΔV1/2 equal to or lower than 15 mV (letter A in table 3))

Compound: COCC1(NC(=O)NCc2ccnc(OCC(F)(F)F)c2)Cc2ccccc2C1 [Compound 148]
- EC50 [1]: 1820 nM
- Kv7.2/7.3 ΔV1/2 [1]: 15.43 mV
- Kv7.4 selectivity criteria [2]: A (Selective compounds showed Kv7.4 and/or Kv7.3/7.5 ΔV1/2 equal to or lower than 15 mV (letter A in table 3))
- Kv7.3/7.5 selectivity criteria [3]: A (Selective compounds showed Kv7.4 and/or Kv7.3/7.5 ΔV1/2 equal to or lower than 15 mV (letter A in table 3))

Compound: O=C(NCc1ccnc(OCC(F)(F)F)c1)NC1CSc2ccccc2C1 (stereo not drawn) [Compound 149]
- EC50 [1]: 618 nM
- Kv7.2/7.3 ΔV1/2 [1]: 30.8 mV
- Kv7.4 selectivity criteria [2]: A (Selective compounds showed Kv7.4 and/or Kv7.3/7.5 ΔV1/2 equal to or lower than 15 mV (letter A in table 3))
- Kv7.3/7.5 selectivity criteria [3]: A (Selective compounds showed Kv7.4 and/or Kv7.3/7.5 ΔV1/2 equal to or lower than 15 mV (letter A in table 3))

Compound: O=C(NCc1ccnc(OCC(F)(F)F)c1)N[C@@H]1CCCOc2ccccc21 [Compound 150]
- EC50 [1]: 1310 nM
- Kv7.2/7.3 ΔV1/2 [1]: 30.15 mV
- Kv7.4 selectivity criteria [2]: B (Non-selective compounds showed Kv7.4 and/or Kv7.3/7.5 ΔV1/2 higher than 15 mV (letter B in table 3))
- Kv7.3/7.5 selectivity criteria [3]: A (Selective compounds showed Kv7.4 and/or Kv7.3/7.5 ΔV1/2 equal to or lower than 15 mV (letter A in table 3))

Compound: O=C(NCc1ccnc(OCC(F)(F)F)c1)N[C@H]1c2ccccc2C[C@H]1CO [Compound 151]
- EC50 [1]: 11200 nM
- Kv7.2/7.3 ΔV1/2 [1]: 23.51 mV
- Kv7.4 selectivity criteria [2]: A (Selective compounds showed Kv7.4 and/or Kv7.3/7.5 ΔV1/2 equal to or lower than 15 mV (letter A in table 3))
- Kv7.3/7.5 selectivity criteria [3]: A (Selective compounds showed Kv7.4 and/or Kv7.3/7.5 ΔV1/2 equal to or lower than 15 mV (letter A in table 3))

Compound: O=C(NCc1ccnc(OCC(F)(F)F)c1)NC1CCSc2ccccc21 (stereo not drawn) [Compound 152]
- EC50 [1]: 1350 nM
- Kv7.2/7.3 ΔV1/2 [1]: 36.08 mV
- Kv7.4 selectivity criteria [2]: B (Non-selective compounds showed Kv7.4 and/or Kv7.3/7.5 ΔV1/2 higher than 15 mV (letter B in table 3))
- Kv7.3/7.5 selectivity criteria [3]: B (Non-selective compounds showed Kv7.4 and/or Kv7.3/7.5 ΔV1/2 higher than 15 mV (letter B in table 3))

Compound: O=C(NCc1ccnc(OC(F)F)c1)N[C@@H]1CCc2ccc(F)cc21 [Compound 153]
- EC50 [1]: 1600 nM
- Kv7.2/7.3 ΔV1/2 [1]: 47.43 mV
- Kv7.4 selectivity criteria [2]: B (Non-selective compounds showed Kv7.4 and/or Kv7.3/7.5 ΔV1/2 higher than 15 mV (letter B in table 3))
- Kv7.3/7.5 selectivity criteria [3]: B (Non-selective compounds showed Kv7.4 and/or Kv7.3/7.5 ΔV1/2 higher than 15 mV (letter B in table 3))

Compound: O=C(NCc1ccnc(OCC(F)(F)F)c1)Nc1cccc2c1CCC2 [Compound 154]
- EC50 [1]: 617 nM
- Kv7.2/7.3 ΔV1/2 [1]: 24.51 mV
- Kv7.4 selectivity criteria [2]: A (Selective compounds showed Kv7.4 and/or Kv7.3/7.5 ΔV1/2 equal to or lower than 15 mV (letter A in table 3))
- Kv7.3/7.5 selectivity criteria [3]: A (Selective compounds showed Kv7.4 and/or Kv7.3/7.5 ΔV1/2 equal to or lower than 15 mV (letter A in table 3))

Compound: O=C(NCc1ccnc(OCC(F)(F)F)c1)N[C@H]1c2ccccc2C[C@H]1O [Compound 155]
- EC50 [1]: 9460 nM
- Kv7.2/7.3 ΔV1/2 [1]: 30.26 mV
- Kv7.4 selectivity criteria [2]: B (Non-selective compounds showed Kv7.4 and/or Kv7.3/7.5 ΔV1/2 higher than 15 mV (letter B in table 3))
- Kv7.3/7.5 selectivity criteria [3]: B (Non-selective compounds showed Kv7.4 and/or Kv7.3/7.5 ΔV1/2 higher than 15 mV (letter B in table 3))

Compound: O=C(NCc1ccnc(OCC(F)(F)F)c1)N[C@@H]1CCCc2ccccc21 [Compound 156]
- EC50 [1]: 1850 nM
- Kv7.2/7.3 ΔV1/2 [1]: 55.46 mV
- Kv7.4 selectivity criteria [2]: B (Non-selective compounds showed Kv7.4 and/or Kv7.3/7.5 ΔV1/2 higher than 15 mV (letter B in table 3))
- Kv7.3/7.5 selectivity criteria [3]: B (Non-selective compounds showed Kv7.4 and/or Kv7.3/7.5 ΔV1/2 higher than 15 mV (letter B in table 3))

Compound: O=C(NCc1ccnc(OCC(F)(F)F)c1)NCC1CCc2ccccc21 (stereo not drawn) [Compound 157]
- EC50 [1]: 4010 nM
- Kv7.2/7.3 ΔV1/2 [1]: 18.8 mV
- Kv7.4 selectivity criteria [2]: A (Selective compounds showed Kv7.4 and/or Kv7.3/7.5 ΔV1/2 equal to or lower than 15 mV (letter A in table 3))
- Kv7.3/7.5 selectivity criteria [3]: A (Selective compounds showed Kv7.4 and/or Kv7.3/7.5 ΔV1/2 equal to or lower than 15 mV (letter A in table 3))
